Results taken from US9044397B2, “Medical devices with galvanic particulates” (Ethicon, Inc., priority 2009, dated 2015).

Tests used:
Format in all cases: cell-based
[1] = test system: C. albicans; test: Zone of inhibition on TSA agar versus copper acetate and zinc acetate; conditions: about 6 log CFU, 37° C. 24 hr
Procedure: (§1) Zone of inhibition testing was performed on agar discs containing copper-zinc galvanic particulates from Example 1(a) at 0.5%, Zn acetate at 0.5%, and Cu acetate at 0.1%. The discs were placed on TSA agar surface, inoculated with about 6 log CFU of MRSA or C. albicans, and incubated at 37° C. for 24 hr.

[2] = test system: MRSA; test: as above; conditions: about 6 log CFU, 37° C. 24 hr
Procedure: as §1

[3] = test system: C. albicans; test: Sustained efficacy, zone of inhibition day 1 and re-plated day 2; conditions: 1% in agar disc
Procedure: (§2) Agars discs containing either galvanic particulates as described in Example 1(a) or zinc acetate at 1% were placed on TSA agar surface inoculated with about 6 log CFU of MRSA or C. albicans and incubated at 37° C. for 24 hr (day-1).

[4] = test system: MRSA; test: as above; conditions: 1% in agar disc
Procedure: as §2

[5] = same disc moved to newly inoculated plate, day-2

| Molecule | zone of inhibition, C. albicans ([1]; 0.5% in agar disc) | zone of inhibition, MRSA ([2]; 0.5% in agar disc) | zone of inhibition, C. albicans, day 1 ([3]; day-1, 24 hr at 37° C.) | zone of inhibition, C. albicans, day 2 [3, 5] | zone of inhibition, MRSA, day 1 ([4]; day-1, 24 hr at 37° C.) | zone of inhibition, MRSA, day 2 [4, 5] | zone of inhibition, C. albicans ([1]; 0.1% in agar disc) | zone of inhibition, MRSA ([2]; 0.1% in agar disc) |
| --- | --- | --- | --- | --- | --- | --- | --- | --- |
| CC(=O)[O-].CC(=O)[O-].[Zn+2] [Zinc Acetate, zinc acetate] | smaller zone of inhibition, approximately one half the radius | smaller zone of inhibition, approximately one half the radius | produce a zone of inhibition | did not show any inhibition | produce a zone of inhibition | did not show any inhibition |  |  |
| copper acetate |  |  |  |  |  |  | did not show any visible zone of inhibition | did not show any visible zone of inhibition |
